Key:
[1] = for mass density / viscosity: 298.15 K, 101.3 kPa; for mass density / viscosity / vapor or sublimation pressure: Liquid; for viscosity: Capillary tube (Ostwald / Ubbelohde) method; for vapor or sublimation pressure: Ebulliometric method (Recirculating still)
[2] = refractive index (Na D-line) (dimensionless); conditions: 298.15 K; 101.33 kPa; Liquid; Standard Abbe refractometry
[3] = refractive index (Na D-line) (dimensionless); xn = mol fraction of the nth substance listed; conditions: 298.15 K, 101 kPa, Liquid, Standard Abbe refractometry
[4] = xn = mol fraction of the nth substance listed; conditions: 298.15 K, 101 kPa, Liquid; for viscosity: Capillary tube (Ostwald / Ubbelohde) method

CC(O)CO (stereo not given) [1,2-propanediol]
Conditions | mass density [kg/m3] | refractive index | viscosity [mPa·s]
[1] | 1031.6 | – | 44.45
[2] | – | 1.4313 | –

[1]
Conditions | vapor or sublimation pressure [kPa]
378 K | 4
398.24 K | 10
402.54 K | 12
415.13 K | 20
425.72 K | 30
433.59 K | 40
439.9 K | 50
445.2 K | 60
449.79 K | 70
453.84 K | 80
457.48 K | 90
460.79 K | 100

CC(O)CO (stereo not given) [1,2-propanediol] + CC1COC(=O)O1
x1 = 1
Conditions | mass density [kg/m3] | refractive index | viscosity [mPa·s]
[3] | – | 1.4313 | –
[4] | 1031.6 | – | 44.45

CC1COC(=O)O1 (stereo not given) [4-methyl-1,3-dioxolan-2-one]
Conditions | mass density [kg/m3] | refractive index | viscosity [mPa·s]
[1] | 1199.4 | – | 2.39
[2] | – | 1.4198 | –

[1]
Conditions | vapor or sublimation pressure [kPa]
407.97 K | 4
432.45 K | 10
437.77 K | 12
453.6 K | 20
467.23 K | 30
477.53 K | 40
485.91 K | 50

CC1COC(=O)O1 (stereo not given) [4-methyl-1,3-dioxolan-2-one] + CC(O)CO
Conditions | mass density, [4] [kg/m3] | refractive index, [3] | viscosity, [4] [mPa·s]
x2 = 0 | 1199.4 | 1.4198 | 2.39
x2 = 0.01 | – | – | 2.534
x2 = 0.05 | 1190.9 | 1.4199 | 2.436
x2 = 0.1 | 1182.4 | 1.4199 | –
x2 = 0.2 | 1166.4 | 1.4207 | 2.921
x2 = 0.3 | 1150.2 | 1.4213 | 3.55
x2 = 0.4 | 1134.2 | 1.4223 | 4.758
x2 = 0.5 | 1117.9 | 1.4235 | 6.071
x2 = 0.6 | 1101.6 | 1.4249 | 8.461
x2 = 0.7 | 1085.1 | 1.4264 | 11.82
x2 = 0.8 | 1068 | 1.4278 | 17.38
x2 = 0.9 | 1050.6 | 1.4294 | 27.54
x2 = 0.9499 | 1041.4 | 1.4305 | 35.66

CCOC(=O)CCC(=O)OCC [diethyl butanedioate]
Conditions | mass density [kg/m3] | refractive index | viscosity [mPa·s]
[1] | 1035.5 | – | 2.393
[2] | – | 1.4179 | –

[1]
Conditions | Normal melting temperature [°C] | vapor or sublimation pressure [kPa]
392.46 K | – | 4
417.39 K | – | 10
423.15 K | – | 12
437.53 K | – | 20
453.15 K | – | 30
462.1 K | – | 40
467.78 K | – | 50
Crystal | -21.52 | –
